Values after ≈ are worked out from the molar mass of the structure shown.
Legend:
[1] = target: T1, Recombinant human soluble guanylate cyclase (sGC), alpha 1 / beta 1 subunits, heme-free (Homo sapiens, UniProt Q02108+Q02153); experiment: Molecular assay: cGMP formation by heme-free recombinant sGC (CisBio cGMP detection kit); type: biochemical; details: 300 pM heme-free sGC, 37° C., 60 min, cGMP readout; read-out: EC50 nM, Activity of Compounds in Molecular Assay
T1 construct: histidine tag (C); made in house; host or cells: Sf9 insect cells (baculovirus coinfection)
T1 sequence (Q02108 1-690 partner): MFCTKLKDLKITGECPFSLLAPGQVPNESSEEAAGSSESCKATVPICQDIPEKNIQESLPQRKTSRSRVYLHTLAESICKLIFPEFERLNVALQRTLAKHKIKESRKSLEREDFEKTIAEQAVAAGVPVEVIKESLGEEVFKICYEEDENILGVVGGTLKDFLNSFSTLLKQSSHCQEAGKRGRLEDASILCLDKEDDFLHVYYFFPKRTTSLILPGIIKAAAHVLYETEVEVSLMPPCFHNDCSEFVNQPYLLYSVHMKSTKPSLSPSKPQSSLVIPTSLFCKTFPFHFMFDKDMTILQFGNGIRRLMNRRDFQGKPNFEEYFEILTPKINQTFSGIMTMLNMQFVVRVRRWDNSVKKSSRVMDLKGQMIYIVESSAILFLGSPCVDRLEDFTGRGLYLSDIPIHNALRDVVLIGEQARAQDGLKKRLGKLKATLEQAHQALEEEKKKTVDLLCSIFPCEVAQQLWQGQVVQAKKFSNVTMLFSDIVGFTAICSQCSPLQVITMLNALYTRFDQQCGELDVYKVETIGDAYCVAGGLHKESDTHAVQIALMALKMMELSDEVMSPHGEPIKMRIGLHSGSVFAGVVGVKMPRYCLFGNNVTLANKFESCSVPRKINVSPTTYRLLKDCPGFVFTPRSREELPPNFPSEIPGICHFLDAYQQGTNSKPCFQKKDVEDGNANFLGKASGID
T1 sequence (Q02153 1-619): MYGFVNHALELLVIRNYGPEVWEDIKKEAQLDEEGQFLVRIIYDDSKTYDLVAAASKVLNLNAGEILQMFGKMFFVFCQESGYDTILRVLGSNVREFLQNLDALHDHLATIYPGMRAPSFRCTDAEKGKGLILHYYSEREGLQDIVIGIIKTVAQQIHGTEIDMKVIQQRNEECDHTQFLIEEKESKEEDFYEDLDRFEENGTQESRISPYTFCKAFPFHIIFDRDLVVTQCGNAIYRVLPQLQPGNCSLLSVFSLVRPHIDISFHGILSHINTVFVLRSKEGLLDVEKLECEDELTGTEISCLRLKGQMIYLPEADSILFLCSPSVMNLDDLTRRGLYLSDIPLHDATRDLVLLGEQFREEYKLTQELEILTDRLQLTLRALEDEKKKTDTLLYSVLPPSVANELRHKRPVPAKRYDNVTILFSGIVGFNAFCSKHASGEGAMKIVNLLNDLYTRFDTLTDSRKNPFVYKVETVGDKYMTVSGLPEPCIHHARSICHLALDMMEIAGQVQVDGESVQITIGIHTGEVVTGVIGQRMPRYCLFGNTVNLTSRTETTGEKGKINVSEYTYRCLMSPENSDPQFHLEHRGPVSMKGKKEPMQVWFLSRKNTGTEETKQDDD
In short: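 cGMP generated over 60 min at 37° C (pH 6.8 MOPS buffer, 50 nM GTP, 1.25 mM IBMX, 1% DMSO) by 300 pM heme-free sGC, expressed in Sf9 and heme-stripped with 0.5% Tween 20. HTRF ratios converted to nM cGMP; EC50 fitted from log concentration.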

[2] = Assessment of solubility: HT solubility in pION buffer, UV spectrophotometry; details: 16-19 h incubation, 1.0% DMSO; for solubility: pION system solution buffer, kinetic from dmso stock
[3] = pH 7.4, pH 7.4, aqueous buffer, Solubility (pH 7.4), pH 7.4 buffer
[4] = pH 4.5, pH 4.5, aqueous buffer, Solubility (pH 4.5), pH 4.5 buffer

Structure (SMILES)	EC50 [1]	Solubility (pH 4.5) ([2]; pH 4.5 buffer)	solubility [2, 3]	solubility [2, 4]
Cc1cc(C(=O)N2CCCCC2)ccc1COc1ccc(C#N)cc1-c1csc(N2CC3C(C2)C3C(=O)O)n1 (stereo not drawn) [Compound 64]	1800 nM	0.1 μg/mL	> 54 µg/mL	–
Cc1ccc(OCc2ccc(C(=O)N3CCCCC3)cc2C#N)c(-c2csc(N3CCC(C(=O)O)CC3)n2)c1 [Compound 65]	58 nM	0.1 μg/mL	23 µg/mL (≈ 42.2 µM)	–
Cc1cc(C(=O)N2CCCCC2)ccc1COc1c(C#N)cccc1-c1csc(N2CCC(C(=O)O)CC2)n1 [Compound 66]	450 nM	–	> 54 µg/mL	1 µg/mL (≈ 1.84 µM)
Cc1cc(C(=O)N2CCCCC2)ccc1COc1ccccc1-c1csc(N2CC3CCC(C2)C3C(=O)O)n1 (stereo not drawn) [Compound 67]	2.5 nM	–	> 54 µg/mL	0.2 µg/mL (≈ 0.366 µM)
Cc1cc(C(=O)N2CCCCC2)ccc1COc1ccccc1-c1csc(N2C3CCC2CC(C(=O)O)C3)n1 (stereo not drawn) [Compound 68]	43 nM	–	> 54 µg/mL	1.2 µg/mL (≈ 2.2 µM)
Cc1ccc(OCc2ccc(C(=O)N3CCOCC3)cc2C#N)c(-c2csc(N3CCC(C(=O)O)CC3)n2)c1 [Compound 70]	180 nM	–	> 54 µg/mL	0.45 µg/mL (≈ 0.823 µM)
Cc1ccc(OCc2ccc(C(=O)N3CCCCC3)cc2C)c(-c2csc(N3CCC(C(=O)O)C(C)C3)n2)c1 (stereo not drawn) [Compound 71]	12000 nM	–	> 62 µg/mL	42 µg/mL (≈ 76.7 µM)
Cc1cc(CN2CCOCC2)ccc1COc1ccc(C#N)cc1-c1csc(N2CCC(C(=O)O)C(C)C2)n1 (stereo not drawn) [Compound 72]	4.8 nM	–	> 54 µg/mL	0.5 µg/mL (≈ 0.915 µM)
Cc1ccc(OCc2ccc(C(=O)N3CCCCC3)cc2C)c(-c2csc(N3CCC(C(=O)O)CC3C)n2)c1 (stereo not drawn) [Compound 73]	7.6 nM	–	> 54 µg/mL	1.9 µg/mL (≈ 3.47 µM)
Cc1ccc(OCc2ccc(CN3CCOCC3)cc2C)c(-c2csc(N3CC4CCC(C3)C4C(=O)O)n2)c1 (stereo not drawn) [Compound 74]	27 nM	–	42 µg/mL (≈ 76.7 µM)	40 µg/mL (≈ 73 µM)
COCCN(C)Cc1ccc(COc2ccc(C)cc2-c2csc(N3CC[C@@H](C(=O)O)[C@@H](C)C3)n2)c(C#N)c1 [Compound 75]	600 nM	–	> 66 µg/mL	> 66 µg/mL
Cc1cc(C(=O)N2CCCCC2)ccc1COc1ccc(Cl)cc1-c1csc(C2=CCC(C(=O)O)CC2)n1 (stereo not drawn) [Compound 76]	600 nM	0.1 μg/mL	4.1 µg/mL (≈ 7.44 µM)	–
Cc1cc(CN2CCOCC2)ccc1COc1ccc(F)cc1-c1csc(N2CC3CCC(C2)C3C(=O)O)n1 (stereo not drawn) [Compound 77]	4400 nM	–	16 µg/mL (≈ 29 µM)	22 µg/mL (≈ 39.9 µM)
Cc1cc(C(=O)N2CCCCC2)ccc1COc1ccc(Cl)cc1-c1csc(N2CC3C(C2)C3C(=O)O)n1 (stereo not drawn) [Compound 78]	550 nM	–	> 55 µg/mL	0.2 µg/mL (≈ 0.362 µM)
Cc1cc(C(=O)N2CCCCC2)ccc1COc1ccc(F)cc1-c1csc(N2CCC(C(=O)O)CC2C)n1 (stereo not drawn) [Compound 79]	50 nM	–	> 55 µg/mL	0.25 µg/mL (≈ 0.453 µM)
Cc1cc(CN2CCOCC2)ccc1COc1ccc(F)cc1-c1csc(N2C3CCC2CC(C(=O)O)C3)n1 (stereo not drawn) [Compound 80]	740 nM	–	> 62 µg/mL	> 62 µg/mL
N#Cc1cc(CN2CCOCC2)ccc1COc1c(Cl)cccc1-c1csc(N2CCC(C(=O)O)CC2)n1 [Compound 81]	70 nM	–	38 µg/mL (≈ 68.7 µM)	36 µg/mL (≈ 65.1 µM)
Cc1cc(CN2CCS(=O)(=O)CC2)ccc1COc1ccccc1-c1csc(N2CC3C(C2)C3C(=O)O)n1 (stereo not drawn) [Compound 82]	3100 nM	–	> 55 µg/mL	12 µg/mL (≈ 21.7 µM)

— patent US8815857B2 (Boehringer Ingelheim International GmbH, priority 2011, dated 2014)
